Measurements as given in US7647217B2, “Structure of the farnesoid X receptor ligand binding domain and methods of use therefor” (The Salk Institute for Biological Studies, priority 2002, dated 2010).

Experiments:
Assay in all cases: GAL4 chimeric NHR cross-reactivity assay
Type in all cases: cell-based
Conditions in all cases: 10 μM
hTRβ = molecular target: T1, hTRβ (Homo sapiens, UniProt P10828)
T1 construct: expressed in transfected cells; host or cells: CV-1 (monkey)
T1 sequence (P10828 217-461 limits assumed): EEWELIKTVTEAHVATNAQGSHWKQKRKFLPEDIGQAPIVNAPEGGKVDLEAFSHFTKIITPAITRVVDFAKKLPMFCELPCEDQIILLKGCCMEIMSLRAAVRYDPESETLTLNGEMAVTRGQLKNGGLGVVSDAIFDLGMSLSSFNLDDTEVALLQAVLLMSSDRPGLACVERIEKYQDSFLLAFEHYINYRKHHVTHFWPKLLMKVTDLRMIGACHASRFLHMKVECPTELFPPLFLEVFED
Description: (§1) FIGS. 3A-3E collectively show the results of ligand activation of CV-1 cells co-transfected with a luciferase reporter gene with a variety of receptor expression constructs. […] FIGS. 3C-3E show the results of CV-1 cells transiently transfected with the indicated reporter constructs, treated with either DMSO or 10 μM of the compounds fexaramine (3C), fexarine (3D), fexarene (3E). Reporter activity was normalized to the internal control and the data plotted as fold activation relative to untreated cells. All transfections contained CMX-βgal as an internal control.
(§2) The expression plasmids pCMX, pCMX-LacZ, pCMX-mFXRFL, pCMX-hRXRFL, pCMX-GALDBD-rFXRLBD and other pCUX-GALDBD-NR LBDs (hRXRα, hPPARαγδ, mPXR, hPXR, hLXRα, HTRβ, hRARβ, mCAR, mERR3 and hVDR) have been described elsewhere (Blumberg et al. (1998). SXR, a novel steroid and xenobiotic-sensing nuclear receptor. Genes Dev. 12(20), 3195-205). The reporter plasmids pMH2004-TK-luc, pTKECRE*6-luc, pTKER-8*2-luc and pMRP-2-luc also have been described elsewhere. The hPLTP-luc promoter was kindly provided by Dr Dennis Dowhan and the hIBABP-luc promoter was created from a plasmid provided by Dr Philippe Besnard.
(§3) Cell-based transcriptional activation assays using chimeric nuclear hormone receptor (NHR) constructs were established to measure the selectivity of the compounds to FXR relative to other NHRs (Forman et al. (1995). Identification of a nuclear receptor that is activated by farnesol metabolites. Cell 81, 687-693). These assays used fusion proteins with the yeast GAL4 DNA binding domain connected to the ligand-binding domain (LBD) of NHRs. These constructs were co-transfected with a thymidine kinase C minimal promoter reporter vector containing four copies of the GAL4 binding site. Titration experiments were then performed using the identified compounds. […] Addition of RXR had no effect on the activation potential of fexaramine, fexarine, fexarene in this assay.
(§4) No activity was observed on other chimeric NHR constructs including hRXRα, hPPARαγδ, mPXR, hPXR, hLXRα, hTRβ, hRARβ, mCAR, mERR3 and hVDR (see FIGS. 3C-3E).

mPXR = molecular target: T2, mPXR (Mus musculus, UniProt O54915)
T2 construct: expressed in transfected cells; host or cells: CV-1 (monkey)
T2 sequence (O54915 143-430 limits assumed): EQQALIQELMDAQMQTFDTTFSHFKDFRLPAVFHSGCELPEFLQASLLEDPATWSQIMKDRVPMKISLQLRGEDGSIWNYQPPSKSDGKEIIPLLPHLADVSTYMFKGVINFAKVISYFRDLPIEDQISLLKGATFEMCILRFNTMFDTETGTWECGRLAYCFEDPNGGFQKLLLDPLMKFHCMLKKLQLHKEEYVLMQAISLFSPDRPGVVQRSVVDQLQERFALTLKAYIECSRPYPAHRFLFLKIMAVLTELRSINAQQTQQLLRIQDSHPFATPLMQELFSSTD
Description: as §1, §2, §3, §4

mERR3 = molecular target: T3, mERR3 (Mus musculus, UniProt P62509)
T3 construct: expressed in transfected cells; host or cells: CV-1 (monkey)
T3 sequence (P62509 233-457 limits assumed): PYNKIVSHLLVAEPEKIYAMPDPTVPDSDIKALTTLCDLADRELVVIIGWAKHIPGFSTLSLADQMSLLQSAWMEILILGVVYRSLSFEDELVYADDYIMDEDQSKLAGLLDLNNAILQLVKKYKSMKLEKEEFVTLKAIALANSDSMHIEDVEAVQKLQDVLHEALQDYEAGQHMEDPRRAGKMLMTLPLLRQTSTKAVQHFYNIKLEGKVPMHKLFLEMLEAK
Description: as §1, §2, §3, §4

hLXRα = molecular target: T4, hLXRα (Homo sapiens, UniProt Q13133)
T4 construct: expressed in transfected cells; host or cells: CV-1 (monkey)
T4 sequence (Q13133 209-447 limits assumed): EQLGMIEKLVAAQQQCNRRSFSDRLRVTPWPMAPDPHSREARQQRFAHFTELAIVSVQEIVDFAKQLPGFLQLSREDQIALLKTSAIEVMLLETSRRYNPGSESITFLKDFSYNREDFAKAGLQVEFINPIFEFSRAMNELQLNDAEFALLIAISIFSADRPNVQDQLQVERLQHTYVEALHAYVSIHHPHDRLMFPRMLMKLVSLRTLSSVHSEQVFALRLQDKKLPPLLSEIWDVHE
Description: as §1, §2, §3, §4

hPXR = molecular target: T5, hPXR (Homo sapiens, UniProt O75469)
T5 construct: expressed in transfected cells; host or cells: CV-1 (monkey)
T5 sequence (O75469 146-433 limits assumed): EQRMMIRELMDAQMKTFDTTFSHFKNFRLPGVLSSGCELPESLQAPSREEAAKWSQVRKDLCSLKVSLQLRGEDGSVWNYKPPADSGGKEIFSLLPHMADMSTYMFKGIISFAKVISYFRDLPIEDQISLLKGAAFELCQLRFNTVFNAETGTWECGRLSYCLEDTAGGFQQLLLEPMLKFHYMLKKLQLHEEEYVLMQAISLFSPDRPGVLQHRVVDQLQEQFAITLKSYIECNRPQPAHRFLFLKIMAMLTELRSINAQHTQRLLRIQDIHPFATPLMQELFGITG
Description: as §1, §2, §3, §4

COC(=O)/C=C/c1cccc(N(Cc2ccc(-c3ccc(N(C)C)cc3)cc2)C(=O)C2CCCCC2)c1 [fexaramine]
No activity: activity on chimeric hTRβ construct (hTRβ) | activity on chimeric mPXR construct (mPXR) | activity on chimeric mERR3 construct (mERR3) | activity on chimeric hLXRα construct (hLXRα)

COC(=O)/C=C/c1cccc(N(Cc2ccc(-c3ccc4c(c3)OCO4)cc2)C(=O)C2CCCCC2)c1 [fexarine]
No activity: activity on chimeric hTRβ construct (hTRβ) | activity on chimeric mPXR construct (mPXR) | activity on chimeric mERR3 construct (mERR3) | activity on chimeric hLXRα construct (hLXRα) | activity on chimeric hPXR construct (hPXR)

COC(=O)/C=C/c1cccc(N(Cc2ccc(/C=C/c3ccccc3)cc2)C(=O)C2CCCCC2)c1 [fexarene]
No activity: activity on chimeric hTRβ construct (hTRβ) | activity on chimeric mPXR construct (mPXR) | activity on chimeric mERR3 construct (mERR3) | activity on chimeric hLXRα construct (hLXRα) | activity on chimeric hPXR construct (hPXR)
